# Source: paper PMC7794376 (Nature Communications, 2021)
# Where “and” joins values, the source holds several entries; their conditions need not be identical. Equal entries are not always repeated. Where two headings read alike, the source gives them in different places.
# Experiments:
# MsmCoaBC = MsmCoaBC (Mycolicibacterium smegmatis, UniProt A0QWT2); assay: EnzChek pyrophosphate assay, CoaB activity of MsmCoaBC; format: biochemical, Mycobacterium smegmatis; settings: MsmCoaBC; 0.5 uM 1b; replicates R1-R3
# Chain of MsmCoaBC (A0QWT2 whole entry): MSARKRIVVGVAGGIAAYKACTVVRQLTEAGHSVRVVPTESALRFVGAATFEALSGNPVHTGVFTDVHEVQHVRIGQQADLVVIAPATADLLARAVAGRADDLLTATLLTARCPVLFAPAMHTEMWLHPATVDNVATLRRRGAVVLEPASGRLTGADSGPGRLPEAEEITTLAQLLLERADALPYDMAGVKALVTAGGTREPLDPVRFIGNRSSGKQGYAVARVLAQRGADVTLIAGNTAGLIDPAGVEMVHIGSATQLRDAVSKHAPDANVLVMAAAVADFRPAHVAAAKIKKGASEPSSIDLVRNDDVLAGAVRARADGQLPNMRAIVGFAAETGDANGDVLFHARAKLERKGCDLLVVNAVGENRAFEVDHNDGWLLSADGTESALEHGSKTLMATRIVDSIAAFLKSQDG
# Description: The commercially available EnzChek pyrophosphate assay kit (E-6645) (Life Technologies) was used for this assay. […] In the assays with HCoaB an enzyme concentration of 1 µM was used instead. […] Assays were performed on either a CLARIOstar or PHERAstar microplate reader (BMG Labtech) in 96-well plates (Greiner). A substrate mixture containing the substrates and the inhibitor was pre-incubated at 25 °C for 10 min. An enzyme solution was prepared and separately pre-incubated at 25 °C for 10 min. The reaction was initiated by the addition of the substrates to the solution containing the enzyme to a final volume of 75 µL. Enzymatic activity was monitored by following the absorbance at 360 nm for 30 min (100 cycles/20 s each cycle) and only the steady-state region of the assay was used for data analysis. Assays were performed in triplicates, including a negative control (lacking PPA) and a positive control (lacking inhibitor).
# M. tuberculosis H37Rv = assay: MIC determination in different media; format: cell-based; settings: Mycobacterium tuberculosis, read-out: Minimum inhibitory concentration (MIC)
# MtbCoaBC [1] = target: T1, MtbCoaBC (Mycobacterium tuberculosis, UniProt P9WNZ1); assay: biochemical; format: biochemical; settings: for activity at 0.015625 µM / activity at 0.03125 µM / activity at 0.0625 µM / activity at 0.25 µM / activity at 0.5 µM: relative to average DMSO CT; for Activity R1 / Activity R3: slope of absorbance at 360 vs time (s); for inhibition, IC50 MtbCoaBC 1b / remaining activity relative to control, IC50 MtbCoaBC 1b: three replicates, column head and unit not shown
# T1 sequence (P9WNZ1 whole entry): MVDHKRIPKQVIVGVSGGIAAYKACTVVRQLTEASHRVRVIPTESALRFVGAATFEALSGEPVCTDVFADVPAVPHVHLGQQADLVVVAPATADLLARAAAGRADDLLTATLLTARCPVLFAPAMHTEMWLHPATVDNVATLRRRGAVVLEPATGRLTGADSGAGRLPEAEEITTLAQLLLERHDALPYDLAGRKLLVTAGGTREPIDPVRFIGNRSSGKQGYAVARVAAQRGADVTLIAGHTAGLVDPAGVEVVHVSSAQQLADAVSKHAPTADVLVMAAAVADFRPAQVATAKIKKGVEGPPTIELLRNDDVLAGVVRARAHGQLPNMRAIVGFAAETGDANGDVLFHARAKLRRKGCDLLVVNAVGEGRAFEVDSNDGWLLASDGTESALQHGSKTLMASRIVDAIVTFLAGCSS
# MtbCoaBC [2] = target: T1, MtbCoaBC; assay: CMP quantification assay (UPLC), second half of CoaB reaction, variable L-cysteine; format: biochemical; settings: for CMP formation rate, uM CMP/uM protein.s-1: MtbCoaBC 32 nM, replicates R1-R3
# [3] = inhibitor concentration 1 (log 0)
# [4] = inhibitor concentration 2 (log 0.30103)
structure (smiles),measurement,setting,value
O=C(c1ccc(O)cc1)c1ccc(O)c(O)c1O [compound 1b],inhibition at 0.5 µM,MsmCoaBC,81.1%
same,MIC,M. tuberculosis H37Rv; 7H9/ADC/Glycerol,> 250 µM
same,MIC,M. tuberculosis H37Rv; 7H9/Cholesterol/Tyloxapol,> 250 µM
same,MIC,M. tuberculosis H37Rv; GAST/Fe,125 µM
same,inhibition at 0.015625 µM,"MtbCoaBC [1]; 0.015625 uM 1b, replicate R1, read-out: Inhibition % R1",2.55%
same,activity at 0.015625 µM,"MtbCoaBC [1]; 0.015625 uM 1b, replicate R1, read-out: Activity % R1",97.4%
same,Activity R1,"MtbCoaBC [1]; 0.015625 uM 1b, replicate R1",0.0001869
same,inhibition at 0.015625 µM,"MtbCoaBC [1]; 0.015625 uM 1b, replicate R2, read-out: Inhibition % R2",2.2%
same,activity at 0.015625 µM,"MtbCoaBC [1]; 0.015625 uM 1b, replicate R2, read-out: Activity % R2",97.8%
same,inhibition at 0.015625 µM,"MtbCoaBC [1]; 0.015625 uM 1b, replicate R3, read-out: Inhibition % R3",1.31%
same,activity at 0.015625 µM,"MtbCoaBC [1]; 0.015625 uM 1b, replicate R3, read-out: Activity % R3",98.7%
same,Activity R3,"MtbCoaBC [1]; 0.015625 uM 1b, replicate R3",0.0001893
same,inhibition at 0.03125 µM,"MtbCoaBC [1]; 0.03125 uM 1b, replicate R1, read-out: Inhibition % R1",6.71%
same,activity at 0.03125 µM,"MtbCoaBC [1]; 0.03125 uM 1b, replicate R1, read-out: Activity % R1",93.3%
same,Activity R1,"MtbCoaBC [1]; 0.03125 uM 1b, replicate R1",0.0001789
same,inhibition at 0.03125 µM,"MtbCoaBC [1]; 0.03125 uM 1b, replicate R2, read-out: Inhibition % R2",2.99%
same,activity at 0.03125 µM,"MtbCoaBC [1]; 0.03125 uM 1b, replicate R2, read-out: Activity % R2",97%
same,inhibition at 0.03125 µM,"MtbCoaBC [1]; 0.03125 uM 1b, replicate R3, read-out: Inhibition % R3",1.51%
same,activity at 0.03125 µM,"MtbCoaBC [1]; 0.03125 uM 1b, replicate R3, read-out: Activity % R3",98.5%
same,Activity R3,"MtbCoaBC [1]; 0.03125 uM 1b, replicate R3",0.0001889
same,inhibition at 0.0625 µM,"MtbCoaBC [1]; 0.0625 uM 1b, replicate R1, read-out: Inhibition % R1",9.45%
same,activity at 0.0625 µM,"MtbCoaBC [1]; 0.0625 uM 1b, replicate R1, read-out: Activity % R1",90.5%
same,Activity R1,"MtbCoaBC [1]; 0.0625 uM 1b, replicate R1",0.0001736
same,inhibition at 0.0625 µM,"MtbCoaBC [1]; 0.0625 uM 1b, replicate R2, read-out: Inhibition % R2",5.43%
same,activity at 0.0625 µM,"MtbCoaBC [1]; 0.0625 uM 1b, replicate R2, read-out: Activity % R2",94.6%
same,inhibition at 0.0625 µM,"MtbCoaBC [1]; 0.0625 uM 1b, replicate R3, read-out: Inhibition % R3",12.9%
same,activity at 0.0625 µM,"MtbCoaBC [1]; 0.0625 uM 1b, replicate R3, read-out: Activity % R3",87.1%
same,Activity R3,"MtbCoaBC [1]; 0.0625 uM 1b, replicate R3",0.0001671
same,inhibition at 0.25 µM,"MtbCoaBC [1]; 0.25 uM 1b, replicate R1, read-out: Inhibition % R1",34.5%
same,activity at 0.25 µM,"MtbCoaBC [1]; 0.25 uM 1b, replicate R1, read-out: Activity % R1",65.5%
same,Activity R1,"MtbCoaBC [1]; 0.25 uM 1b, replicate R1",0.0001256
same,inhibition at 0.25 µM,"MtbCoaBC [1]; 0.25 uM 1b, replicate R2, read-out: Inhibition % R2",38.6%
same,activity at 0.25 µM,"MtbCoaBC [1]; 0.25 uM 1b, replicate R2, read-out: Activity % R2",61.4%
same,inhibition at 0.25 µM,"MtbCoaBC [1]; 0.25 uM 1b, replicate R3, read-out: Inhibition % R3",42.2%
same,activity at 0.25 µM,"MtbCoaBC [1]; 0.25 uM 1b, replicate R3, read-out: Activity % R3",57.8%
same,Activity R3,"MtbCoaBC [1]; 0.25 uM 1b, replicate R3",0.0001108
same,inhibition at 0.5 µM,"MtbCoaBC [1]; 0.5 uM 1b, replicate R1, read-out: Inhibition % R1",89.6%
same,activity at 0.5 µM,"MtbCoaBC [1]; 0.5 uM 1b, replicate R1, read-out: Activity % R1",10.4%
same,Activity R1,"MtbCoaBC [1]; 0.5 uM 1b, replicate R1",0.000019995
same,inhibition at 0.5 µM,"MtbCoaBC [1]; 0.5 uM 1b, replicate R2, read-out: Inhibition % R2",80.6%
same,activity at 0.5 µM,"MtbCoaBC [1]; 0.5 uM 1b, replicate R2, read-out: Activity % R2",19.4%
same,inhibition at 0.5 µM,"MtbCoaBC [1]; 0.5 uM 1b, replicate R3, read-out: Inhibition % R3",86.3%
same,activity at 0.5 µM,"MtbCoaBC [1]; 0.5 uM 1b, replicate R3, read-out: Activity % R3",13.7%
same,Activity R3,"MtbCoaBC [1]; 0.5 uM 1b, replicate R3",0.000026339
same,"inhibition, IC50 MtbCoaBC 1b",MtbCoaBC [1]; [3],96.33 and 92.35 and 100.00
same,"remaining activity relative to control, IC50 MtbCoaBC 1b",MtbCoaBC [1]; [3],-0.335 and 3.671 and 7.649
same,"inhibition, IC50 MtbCoaBC 1b",MtbCoaBC [1]; [4],100.00
same,"remaining activity relative to control, IC50 MtbCoaBC 1b",MtbCoaBC [1]; [4],-0.361 and -1.371 and -2.001
same,IC50,MtbCoaBC [1]; read-out: IC50 EnzChek MtbCoaBC,280 ± 50 nM
same,"CMP formation rate, uM CMP/uM protein.s-1","MtbCoaBC [2]; 0.0625 uM 1b, 31.25 uM L-cysteine",0.1694 uM CMP/uM protein.s-1 and 0.1962 uM CMP/uM protein.s-1 and 0.1676 uM CMP/uM protein.s-1
same,"CMP formation rate, uM CMP/uM protein.s-1","MtbCoaBC [2]; 0.0625 uM 1b, 62.5 uM L-cysteine",0.2113 uM CMP/uM protein.s-1 and 0.2325 uM CMP/uM protein.s-1 and 0.2281 uM CMP/uM protein.s-1
same,"CMP formation rate, uM CMP/uM protein.s-1","MtbCoaBC [2]; 0.0625 uM 1b, 250 uM L-cysteine",0.2822 uM CMP/uM protein.s-1 and 0.2759 uM CMP/uM protein.s-1 and 0.2797 uM CMP/uM protein.s-1
same,"CMP formation rate, uM CMP/uM protein.s-1","MtbCoaBC [2]; 0.0625 uM 1b, 500 uM L-cysteine",0.3148 uM CMP/uM protein.s-1 and 0.3211 uM CMP/uM protein.s-1 and 0.3277 uM CMP/uM protein.s-1
same,"CMP formation rate, uM CMP/uM protein.s-1","MtbCoaBC [2]; 0.250 uM 1b, 31.25 uM L-cysteine",0.1192 uM CMP/uM protein.s-1 and 0.1053 uM CMP/uM protein.s-1 and 0.1262 uM CMP/uM protein.s-1
same,"CMP formation rate, uM CMP/uM protein.s-1","MtbCoaBC [2]; 0.250 uM 1b, 62.5 uM L-cysteine",0.1329 uM CMP/uM protein.s-1 and 0.1247 uM CMP/uM protein.s-1 and 0.1395 uM CMP/uM protein.s-1
same,"CMP formation rate, uM CMP/uM protein.s-1","MtbCoaBC [2]; 0.250 uM 1b, 250 uM L-cysteine",0.1577 uM CMP/uM protein.s-1 and 0.155 uM CMP/uM protein.s-1 and 0.1593 uM CMP/uM protein.s-1
same,"CMP formation rate, uM CMP/uM protein.s-1","MtbCoaBC [2]; 0.250 uM 1b, 500 uM L-cysteine",0.1688 uM CMP/uM protein.s-1 and 0.1557 uM CMP/uM protein.s-1 and 0.1625 uM CMP/uM protein.s-1
same,mode of inhibition,"MtbCoaBC [2]; relative to L-cysteine, in words",uncompetitive inhibition
